Results from PubChem BioAssay (NCI).
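1) Cells in 96-well plates. 2) Compound, 48 h, 5 concentrations. 3) Linear interpolation between surrounding doses. 4) Unreached endpoint = highest concentration. Here, GI50 denotes the concentration required for 50% inhibition of growth. The concentration for full growth arrest is given as TGI.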

Key:
Assay in all cases: NCI anticancer screen, dose series, 48 h
[1] = test system: 786-0 renal
[2] = test system: OVCAR-4 ovarian
[3] = test system: UACC-257 melanoma
[4] = test system: CAKI-1 renal
[5] = test system: NCI-H226 lung
[6] = test system: LOX IMVI melanoma
[7] = test system: HCT-116 colon
[8] = test system: HOP-92 NSCLC
[9] = test system: OVCAR-5 ovarian
[10] = test system: SF-268 CNS

SMILES	TGI [1]	TGI [2]	TGI [3]	TGI [4]	TGI [5]	TGI [6]	TGI [7]	TGI [8]	TGI [9]	TGI [10]	GI50 [1]	GI50 [2]	GI50 [3]	GI50 [4]	GI50 [5]	GI50 [6]	GI50 [7]	GI50 [8]	GI50 [9]	GI50 [10]
O=C(O)[C@@H]1[C@H](C(=O)O)[C@H](C(=O)O)C[C@@H]1C(=O)O	> 100 µM	> 100 µM	> 100 µM	> 100 µM	> 100 µM	> 100 µM	> 100 µM	> 100 µM	> 100 µM	> 100 µM										
O=C1C=C(NCCNC(=S)Nc2ccccc2)c2nccc3c2c1nc1ccccc13	> 100 µM	> 100 µM	> 100 µM	> 100 µM	> 100 µM	> 100 µM	> 100 µM	> 100 µM	> 100 µM	> 100 µM	94.5 µM	92.7 µM	93.2 µM	33.6 µM	70 µM	31.5 µM	14 µM	> 100 µM	> 100 µM	53.7 µM
NC1CCCCC1.[O]=[Ge].[O]=[Ge].[O]=[Ge][OH].[O]=[Ge][OH]	> 100 µM	> 100 µM	> 100 µM	> 100 µM	> 100 µM	> 100 µM	> 100 µM	> 100 µM	> 100 µM	> 100 µM	> 100 µM			> 100 µM	> 100 µM					
COc1cc2c(c(OC)c1OC)-c1ccc(N)c(=O)cc1[C@@H](NC(C)=O)CC2	> 100 µM	> 100 µM	> 100 µM	> 47.2 µM		> 100 µM	> 100 µM	> 100 µM	> 100 µM	> 100 µM	0.108 µM	0.0542 µM	> 100 µM	1.42 µM	0.0852 µM	0.0256 µM	0.0168 µM	0.0409 µM	0.202 µM	0.0339 µM
COc1cc(CCN)c2c(c1OC)SSSSS2	2.22 µM	2.51 µM	6.8 µM	1.11 µM				2.96 µM	1.48 µM	4.76 µM	1.04 µM	1.05 µM	2.58 µM	0.503 µM		0.0127 µM	0.22 µM	1.42 µM	0.591 µM	1.95 µM
O=C(c1ccc(Cl)cc1)c1ccc(OCCCCCCCCCCOc2ccc(C(=O)c3ccc(Cl)cc3)cc2)cc1	> 100 µM		> 100 µM	> 100 µM	> 100 µM	> 100 µM		> 100 µM	> 100 µM	> 100 µM										
COc1ccc(Nc2ncc(Br)c(NCCCNC(=O)C3CCC3)n2)cc1	47.1 µM	56 µM	> 100 µM	31.6 µM	37.7 µM	18.1 µM	82.3 µM	39.8 µM	40.2 µM	41.6 µM	10.1 µM	11.3 µM	68.9 µM	5.21 µM	4.8 µM	4.06 µM	8.31 µM	5.58 µM	10.8 µM	4.78 µM
O=C(Nc1ccc(Cl)cc1Cl)C(=O)C(C(=O)c1ccc2ccccc2c1)C1OC(=O)c2ccccc21 (configuration not stated)	19.5 µM	35.2 µM	65.3 µM	83 µM	6.33 µM	24.9 µM	18 µM	8.92 µM	19.6 µM											
O=C([CH-]C(=O)c1ccccc1)c1ccccc1.O=C([CH-]C(=O)c1ccccc1)c1ccccc1.O=C([CH-]C(=O)c1ccccc1)c1ccccc1.[Nd+3].[OH3+]	18.5 µM	51.7 µM	24.6 µM	20.8 µM		29.4 µM	19.1 µM	25.5 µM	> 100 µM	31.1 µM	5.06 µM	6.63 µM	7.84 µM	5.34 µM		11.5 µM	4.92 µM	8.29 µM	39.5 µM	4.16 µM
CC1(C)C(=O)C(C)(C)C1=NN	> 100 µM	> 100 µM	> 100 µM	> 100 µM	> 100 µM	> 100 µM	> 100 µM	> 100 µM	> 100 µM	> 100 µM										
CCOC(=O)/C(O)=C/c1cc(OC)cc(=O)o1	> 100 µM	> 100 µM	> 100 µM	> 100 µM	> 100 µM	> 100 µM	> 100 µM	> 100 µM	> 100 µM	> 100 µM										
OCCCOC(c1ccccc1)(c1ccccc1)c1ccccc1	> 100 µM	> 100 µM	> 100 µM	> 100 µM		> 100 µM	> 100 µM	> 100 µM	> 100 µM	> 100 µM										
Oc1ccc(C(c2ccc(O)cc2)c2ccc(Cl)cn2)cc1	> 100 µM	0.0598 µM	> 100 µM	> 100 µM	> 45.8 µM	> 100 µM	> 100 µM	0.947 µM	> 100 µM	> 100 µM	36.2 µM	0.0243 µM	23.1 µM	22.1 µM	1.93 µM	0.295 µM	0.473 µM	0.266 µM	17.6 µM	25.9 µM
CCOC(=O)C1(Br)C(c2ccccc2)NC(=O)NC1(C)Br (configuration not stated)	> 100 µM	> 100 µM	> 100 µM	> 62.4 µM	> 100 µM	> 58.4 µM	> 100 µM	> 93.5 µM	> 100 µM	> 100 µM		30.3 µM								
C1C[OH+]CC[OH+]CCNCC[OH+]CC[OH+]CCN1.[Cl-].[Pt+4]	> 100 µM	> 100 µM	> 100 µM	> 100 µM	> 100 µM	> 100 µM	> 100 µM	> 100 µM	> 100 µM	> 100 µM	> 100 µM	> 100 µM	> 100 µM	> 100 µM	> 100 µM	> 100 µM	> 100 µM	> 100 µM	> 100 µM	> 100 µM
CCCCCCCNc1nc(C(=O)OCC)ncc1-c1ccc(C(F)(F)F)cc1	> 100 µM	> 100 µM	75.6 µM	> 100 µM	> 100 µM	> 100 µM	> 100 µM	> 100 µM	> 100 µM	> 100 µM	39.3 µM	13.8 µM	26.6 µM	38.2 µM	30.5 µM	40.9 µM	32 µM	24.8 µM	> 100 µM	48.2 µM

SMILES	TGI [1]	TGI [2]	TGI [3]	TGI [4]	TGI [5]	TGI [6]	TGI [7]	TGI [8]	TGI [9]	TGI [10]	GI50 [1]	GI50 [2]	GI50 [3]	GI50 [4]	GI50 [5]	GI50 [6]	GI50 [7]	GI50 [8]	GI50 [9]	GI50 [10]
C=C1SC(=Nc2c(C)cc(C)cc2C)N(C(=O)c2sc3ccccc3c2Cl)C12CCCCC2	> 100 µM	> 100 µM	> 100 µM	> 100 µM	> 100 µM	> 100 µM	> 100 µM	> 100 µM	> 100 µM	> 100 µM	> 100 µM	> 100 µM	> 100 µM	10.7 µM	> 100 µM	> 100 µM	> 100 µM	39.1 µM	> 100 µM	> 100 µM
CC(=O)NNc1nc(C)c(C(=O)NNC(=O)C(=O)Nc2c(C)cccc2C)s1	> 100 µM	> 100 µM	> 100 µM	> 100 µM	> 100 µM	> 100 µM	> 100 µM	> 100 µM	> 100 µM	> 100 µM										
COc1ccccc1/C=C1\CCC(CCN(C)C)(C2=CCCC2)C1=O (configuration not stated)	28.5 µM	35.2 µM	31 µM	57.2 µM	40.5 µM	31.3 µM	25.3 µM	46.6 µM	82.5 µM	40.1 µM										
O=C(/C=C/C12c3ccccc3C(c3ccccc31)C1C(=O)N(c3ccccc3)C(=O)C12)c1ccccc1 (configuration not stated)	> 100 µM	> 100 µM	39.2 µM	> 100 µM	8.63 µM	3.51 µM	2.07 µM	3.75 µM	5.02 µM	> 100 µM	2.89 µM	2.94 µM	2.3 µM	1.5 µM	2.34 µM	1.66 µM	0.695 µM	1.26 µM	1.91 µM	8.56 µM
COc1ccc(-c2oc3c(OC)c(OC)c(OC)c(O)c3c(=O)c2OC)cc1OC	> 77.9 µM	> 100 µM	> 100 µM	> 100 µM	> 88.7 µM	> 76.3 µM	> 100 µM	18.4 µM	> 100 µM	> 55.1 µM										
CC1OC(OCC2OC(Oc3c(-c4ccc(O)cc4)oc4cc(O)cc(O)c4c3=O)C(OC3OC(C)C(O)C(O)C3O)C(O)C2O)C(O)C(O)C1O (configuration not stated)	> 100 µM	> 90.2 µM	> 100 µM	> 100 µM	> 100 µM	> 100 µM	> 100 µM	> 100 µM	> 100 µM	> 100 µM										
O=C1C(c2c[nH]c3ccccc23)=C(c2c[nH]c3ccccc23)C(=O)N1O	> 25 µM	> 25 µM	> 25 µM	> 25 µM	> 25 µM	> 25 µM	> 25 µM	21.7 µM	> 25 µM	> 25 µM	> 25 µM	> 25 µM	> 25 µM	> 20.8 µM	> 25 µM	4.65 µM	> 25 µM	2.89 µM	> 25 µM	> 25 µM
CCCNCCCC(NC(C)=O)C(=O)NCc1ccccc1 (configuration not stated)	> 100 µM	> 100 µM	> 100 µM	> 100 µM	> 100 µM	> 100 µM	> 100 µM	> 100 µM	> 100 µM	> 100 µM										
O=c1[nH]c(=O)n([C@@H]2C[C@H](CO)[C@H](O)C2)cc1/C=C/Br	> 100 µM	> 100 µM	> 100 µM	> 100 µM	> 100 µM	> 100 µM	> 100 µM	> 100 µM	> 100 µM	> 100 µM										
COc1ccc2c(c1)C(=O)c1c-2n(CCCN=[N+]=[N-])c(=O)c2cc(N(C)C)ccc12	> 100 µM	> 100 µM	> 100 µM	> 100 µM	> 100 µM	> 100 µM	> 100 µM	24.6 µM	> 100 µM	> 100 µM	29.5 µM	> 100 µM	> 100 µM	> 100 µM	> 100 µM	> 100 µM	77.3 µM	2.87 µM	> 100 µM	22.3 µM
CC1(C)CC[C@H](Nc2ncc(C(F)(F)F)c(-c3c[nH]c4c(P(C)(C)=O)c(C#N)ccc34)n2)CN1	19.2 µM	6.89 µM	6.83 µM	> 37.6 µM	6.78 µM	7.44 µM	12.1 µM	28.8 µM	> 37.7 µM	12.9 µM	0.201 µM	0.365 µM	< 0.01 µM	0.0361 µM	0.165 µM	0.0297 µM	< 0.01 µM	0.345 µM	0.144 µM	1.17 µM
CCc1cccc(C(C)C)c1NC(=O)C(=O)CC(=O)c1c(C)n([O-])c2ccccc2[n+]1=O	> 100 µM	> 100 µM		> 100 µM	> 100 µM	> 100 µM	> 100 µM	> 100 µM	> 100 µM	> 100 µM										
O=C(Nc1cccs1)c1c(O)[nH]c(=S)[nH]c1=O	> 100 µM	> 100 µM	> 100 µM	> 100 µM	> 100 µM	> 100 µM		> 100 µM	> 100 µM	> 100 µM										
O=Nc1c(-c2c(O)[nH]c3ccc([N+](=O)[O-])cc23)[nH]c2ccc(O)cc12	> 100 µM	> 100 µM	> 83.9 µM	> 100 µM	> 100 µM	0.531 µM		> 29.1 µM	51.1 µM	> 100 µM	0.319 µM	0.43 µM	0.647 µM	0.332 µM	0.383 µM	0.171 µM		2.78 µM	1.65 µM	0.474 µM
COc1cc(/C=C\c2ccc(C)cc2)cc(OC)c1OC	25.2 µM	46.5 µM	> 76.6 µM	> 53.8 µM	0.987 µM	38.7 µM		4.13 µM	> 91.5 µM	> 63.3 µM			< 0.021 µM	0.0235 µM	< 0.0134 µM			0.0233 µM		< 0.0136 µM
CCCCCCCCCCCCCCN	> 100 µM	> 100 µM	> 100 µM	> 100 µM		> 100 µM	> 100 µM	> 100 µM	> 100 µM	> 100 µM										
